Results on four molecules are retold here after patent publication US20110002953A1, “USE OF IMMIDAZOQUINOLINAMINES AS ADJUVANTS IN DNA VACCINATION” (priority 2000, published 2011).

Assay [1] deals with IFN-γ-producing (Th1) cells. Kind of assay: IFN-γ ELISPOT on lymph node cells after pVAC1.OVA vaccination, adoptive transfer model. In kind it is in vivo, Balb/c mice. The following applies: for IFN-γ producing cells, in words: pVAC1.OVA + adjuvant versus plasmid without adjuvant. Here is the method:
(§1) Splenocytes were prepared as in example 1 above.
(§2) Th CD4+ subsets were assessed using the adoptive transfer model (example 2, above). IFN-γ-producing (Th1) and IL-4-producing (Th2) cells were assayed by ELISPOT (example 1, above). […] No cytokine producing cells were detected in empty vector immunised controls.
(§3) Cartridges were prepared using the pVAC1.OVA plasmid, immunisations and T cell responses were as described in example 2.

Assay [2] concerns IL-4-producing (Th2) cells. The assay can be described thus: IL-4 ELISPOT on lymph node cells after pVAC1.OVA vaccination, adoptive transfer model. In kind it is in vivo, Balb/c mice. As to conditions: for IL-4 producing cells, in words: pVAC1.OVA + adjuvant versus plasmid without adjuvant. As to the method:
as §1, §2, §3

Assay [3] has as its system cytotoxic T cell response. The assay can be described thus: CD8+ T cell-restricted IFN-γ ELISPOT of splenocytes after particle mediated vaccination with pVAC1.PR (influenza nucleoprotein plasmid). The class given is in vivo, C57B1/6 mice. As to the method:
The cytotoxic T cell response was assessed by CD8+ T cell-restricted IFN-γ ELISPOT assay of splenocytes collected one week later. Mice were killed by cervical dislocation and spleens were collected into ice-cold PBS. Splenocytes were teased out into phosphate buffered saline (PBS) followed by lysis of red blood cells (1 minute in buffer consisting of 155 mM NH4Cl, 10 mM KHCO3, 0.1 mM EDTA). After two washes in PBS to remove particulate matter the single cell suspension was aliquoted into ELISPOT plates previously coated with capture IFN-γ antibody and stimulated with CD8-restricted cognate peptide. After overnight culture, IFN-γ producing cells were visualised by application of anti-murine IFN-γ-biotin labelled antibody (Pharmingen) followed by streptavidin—conjugated alkaline phosphatase and quantitated using image analysis.

In the next assay the test system is EG7-OVA cells. The assay can be described thus: Tumour challenge with EG7-OVA cells after immunisation with pVAC1.OVA. The class given is in vivo, mice.
Assay [4] deals with cytotoxic T cells (HIV antigens Gag and Nef). Kind of assay: IFN-γ ELISPOT of splenocytes with CD8-restricted Gag and Nef peptides after prime/boost vaccination with WRG7077.Gag/Nef. The class given is in vivo, Balb/c mice. Here is the method:
Here mice received a primary immunisation followed by a boost immunisation 42 days later.
IFN-γ ELISPOT assays were performed as described (example 1), using CD8-restricted cognate peptides for the Gag and Nef antigens to stimulate splenocytes collected 5 days after the boost immunisation.
Cartridges were prepared using the WRG7077Gag/Nef plasmid, PMID immunisations and T cell responses were as described in example 5. […] Spleens were collected for analysis 6 and 11 days after the boost immunisation.

Where [5] appears, read: imiquimod 100 mg/kg s.c. at boost only, splenocytes 5 days after boost, versus plasmid with vehicle.

Consider `CCOCc1nc2c(N)nc3ccccc3c2n1CC(C)(C)O` [Resiquimod, 1-(2-hydroxy-2-methylpropyl)-2-ethoxymethyl-1-H-imidazo[4,5-c]quinolin-4-amine], for which, in assay [1] (1 mg/kg (apparently optimal dose), lymph node cells 5 days after immunisation), the “increase of IFN-γ producing CD4 T cells” value is on record as “six”. For the same molecule, the “IFN-γ producing cells, in words” value in assay [1] is “increased”. For the same molecule, the “effect on IL-4 producing CD4 T cells” value in assay [2] (1 mg/kg, lymph node cells 5 days after immunisation) was “only a modest effect”. Further, in assay [2], the “IL-4 producing cells, in words” value is given as “increased”.
Regarding `Cc1nc2c(N)nc3ccccc3c2n1CC(C)(C)O` [1-(2-hydroxy-2-methylpropyl)-2-methyl-1H-imidazo[4,5-c]quinolin-4-amine], the “IFN-γ producing cells, in words” value in assay [1] is recorded as “increased”. Besides, the “IL-4 producing cells, in words” value in assay [2] is given as “increased”. For the same molecule, in assay [2] (single dose 30 mg/kg, 5 days after immunisation), the “increase in IL-4 producing CD4 T cells” value is given as “Two”.
For the molecule `CC(C)(O)Cn1cnc2c(N)nc3ccccc3c21` [1-(2-hydroxy-2-methylpropyl)-1H-imidazo[4,5-c]quinolin-4-amine], the “IFN-γ producing cells, in words” value in assay [1] was “increased”. Further, the “IL-4 producing cells, in words” value in assay [2] was “increased”.
On to `CC(C)Cn1cnc2c(N)nc3ccccc3c21` [imiquimod, 1-(2-methylpropyl)-1H-imidazo[4,5-c]quinolin-4-amine], for which the “IFN-γ producing cells, in words” value in assay [1] is reported as “increased”. The “Th1/Th2 bias: increase of IFN-γ versus IL-4 producing cells” value in assay [1] (pVAC1.OVA + imiquimod, ELISPOT) is reported as “more substantial for IFN-γ compared with IL-4”. Moreover, in assay [3] (empty vector pVAC1, imiquimod 30 mg/kg s.c.), the “cytotoxic T cells, control plasmid (pVAC1) + imiquimod versus vehicle” value is “No difference”. In addition, the “number of cytotoxic T cells in the spleens, pVAC1.PR + imiquimod versus pVAC1.PR + vehicle” value in assay [3] (imiquimod 30 mg/kg single s.c. injection at immunisation site, splenocytes one week later) stood at 3 times. Besides, in assay [3] (in words), the “cytotoxic T-cell response following vaccination with pVAC1.PR (FIG. 1)” value is on record as “increases”. For the same molecule, in the assay on EG7-OVA cells (in words), the “growth of tumours (FIG. 9)” value was “delays” and the “tumourigenicity of EG7.OVA tumour cells (FIG. 10)” value is given as “reduces”. Also, the tumourigenicity in the assay on EG7-OVA cells (mice immunised with pVAC1.OVA + imiquimod 30 mg/kg s.c., 100,000 cells/mouse two weeks after boost) is recorded as 25%. Besides, in the assay on EG7-OVA cells (pVAC1.OVA + imiquimod 30 mg/kg s.c. compared with pVAC1.OVA alone), the “appearance of palpable tumours” value was “most delayed”. In assay [2], the “IL-4 producing cells, in words” value was “increased”. For the same molecule, the “increase in cytotoxic T cells, imiquimod s.c. injection” value in assay [4] (30 mg/kg s.c., 11 days after boost, versus plasmid with s.c. vehicle) was “approximately 2 fold”. The “increase in cytotoxic T cells, imiquimod topically” value in assay [4] (20 μl of 5% (w/v) cream (Aldara) at PMID site, 11 days after boost, versus plasmid with s.c. vehicle) was “approximately 2 fold”. For the same molecule, in assay [4] (setting [5]), the “increase in cytotoxic T cells, Gag” value is 10 fold and the “increase in cytotoxic T cells, Nef” value was found to be 100 fold. For the same molecule, in assay [4] (in words), the “cytotoxic T-cell response following vaccination with WRG7077.Gag/Nef (FIG. 5)” value is “increases” and the “cytotoxic T-cell response, topical application (FIG. 8)” value was “increases”.
